The record followed here is patent publication US7968720B2, “Secondary amines as renin inhibitors” (Actelion Pharmaceuticals Ltd., priority 2006, dated 2011).

What is called IC50 is the concentration at which inhibition is half-maximal.

In this test the target is T1, recombinant human renin (Homo sapiens, UniProt P00797).
T1 sequence (P00797 67-406): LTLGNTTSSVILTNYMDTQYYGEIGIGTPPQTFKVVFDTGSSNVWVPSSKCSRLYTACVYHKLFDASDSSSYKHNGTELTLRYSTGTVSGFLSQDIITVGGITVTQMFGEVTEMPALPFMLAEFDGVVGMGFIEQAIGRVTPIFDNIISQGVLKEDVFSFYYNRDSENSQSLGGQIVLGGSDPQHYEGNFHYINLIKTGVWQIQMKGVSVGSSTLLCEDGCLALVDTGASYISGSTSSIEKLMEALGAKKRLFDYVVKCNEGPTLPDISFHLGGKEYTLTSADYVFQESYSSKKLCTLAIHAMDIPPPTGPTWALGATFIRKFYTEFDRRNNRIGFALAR
Put plainly: Primary renin inhibition assay: IC50 in buffer, 384 well MTP (AngI measured by EIA). It counts as biochemical. The settings on record: human tetradecapeptide (1-14) substrate, incubated at 37° C. for 3 h, AngI quantified by EIA. The protocol: 1. Enzyme Immuno Assay (EIA) to Estimate AngI Accumulation and Renin Inhibition
1.1 Preparation of AngI-BSA Conjugate
1.3 mg (1 μmol) of AngI [1-10 (Bachem, H-1680)] and 17 mg (0.26 μmol) of BSA (Fluka, 05475) were dissolved in 4 mL of 0.1M phosphate buffer, pH 7.4, after which 2 mL of a 1:100 dilution of glutaraldehyde in H2O (Sigma G-5882) was added dropwise. The mixture was incubated overnight at 4° C., then dialyzed against 2 liters of 0.9% NaCl, twice for 4 h at rt, followed by dialysis against 2 liters of PBS 1× overnight at rt. The solution was then filtered with a Syringe filter, 0.45 μm (Nalgene, Cat. No. 194-2545). The conjugate can be stored in polypropylene tubes in 0.05% sodium azide at 4° C. for at least 12 months.
1.2 Preparation of BSA-AngI Coated MTP
Microtiter plates (MPT384, MaxiSorp™, Nunc) were incubated overnight at 4° C. with 80 μl of AngI (1-10)/BSA conjugate, diluted 1:100'000 in PBS 1× in a teflon beaker (exact dilution dependent on batch of conjugate), emptied, filled with 90 μl of blocking solution [0.5% BSA (Sigma A-2153) in PBS 1×, 0.02% NaN3], and incubated for at least 2 h at rt, or overnight at 4° C. 96 well MTP (MaxiSorp™, Nunc) were coated with 200 μl conjugate and blocked with 250 μl blocking solution as above, except that the blocking solution contained 3% BSA. The plates can be stored in blocking solution at 4° C. for 1 month.
1.3 AngI-EIA in 384 Well MTP
The AngI (1-10)/BSA coated MTP were washed 3 times with wash buffer (PBS 1×, 0.01% Tween 20) and filled with 75 μl of primary antibody solution (anti-AngI antiserum, pre-diluted 1:10 in horse serum), diluted to a final concentration of 1:100'000 in assay buffer (PBS 1×, 1 mM EDTA, 0.1% BSA, pH 7.4). 5 μl of the renin reaction (or standards in assay buffer) (see below) were added to the primary antibody solution and the plates were incubated overnight at 4° C. After the incubation the plates were washed 3 times with wash buffer and incubated with secondary antibody [anti-rabbit IgG, linked to horseradish peroxidase (Amersham Bioscience, NA 934V), diluted 1:2'000 in wash buffer] for 2 h at rt. The plates were washed 3 times with wash buffer and then incubated for 1 h at rt with substrate solution [1.89 mM ABTS (2,2′-azino-di-(3-ethyl-benzthiazolinsulfonate)] (Roche Diagnostics, 102 946) and 2.36 mM H2O2 [30%, (Fluka, 95300] in substrate buffer (0.1M sodium acetate, 0.05M sodium dihydrogen phosphate, pH 4.2). The OD of the plate was read at 405 nm in a microplate reader (FLUOStar Optima from BMG). The production of AngI during the renin reaction was quantified by comparing the OD of the sample with the OD of a standard curve of AngI(1-10), measured in parallel.
2. Primary Renin Inhibition Assay: IC50 in Buffer, 384 Well MTP
The renin assay was adapted from an assay described before (Fischli W. et al., Hypertension, 1991, 18:22-31) and consists of two steps: in the first step, recombinant human renin is incubated with its substrate (commercial human tetradecapeptide renin substrate) to create the product Angiotensin I (AngI). In the second step, the accumulated AngI is measured by an immunological assay (enzyme immuno assay, EIA). The detailed description of this assay is found below. The EIA is very sensitive and well suited for renin activity measurements in buffer or in plasma. Due to the low concentration of renin used in this assay (2 fmol per assay tube or 10 pM) it is possible to measure inhibitor affinities in this primary assay down to low pM concentration.
Recombinant human renin (3 pg/μl) in assay buffer (PBS 1×, 1 mM EDTA, 0.1% BSA, pH 7.4), human tetradecapeptide (1-14) substrate (Bachem, M-1120) [5 μM in 10 mM HCl], hydroxyquinoline sulfate (Fluka, 55100) [30 mM in H2O] and assay buffer were premixed at 4° C. at a ratio of 100:30:10:145. 47.5 μl per well of this premix was transferred into polypropylene plates (MTP384, Nunc). […]

The structures appear in SMILES notation.

Turning to `Cc1cc(Cl)c(O[C@@H]2CCN(c3ccc([C@H]4CCNC[C@@H]4C(=O)N(Cc4cc(CNC(=O)C5CC5)ccc4Cl)C4CC4)cn3)C2)c(Cl)c1` [Example 93, (3′R,4′S)-6-[(R)-3-(2,6-Dichloro-4-methyl-phenoxy)-pyrrolidin-1-yl]-1′,2′,3′,4′,5′,6′-hexahydro-[3,4′]bipyridinyl-3′-carboxylic acid {2-chloro-5-[(cyclopropanecarbonyl-amino)-methyl]-benzyl}-cyclopropyl-amide], the IC50 was found to be 380 pM.

For `CNC(=O)CCc1ccc(Cl)c(CN(C(=O)[C@H]2CNCC[C@@H]2c2ccc(OCc3cc(-c4c(F)ccc(F)c4Cl)no3)cc2)C2CC2)c1` [Example 102, (3R,4S)-4-{4-[3-(2-Chloro-3,6-difluoro-phenyl)isoxazol-5-ylmethoxy]-phenyl}-piperidine-3-carboxylic Acid [2-chloro-5-(2-methylcarbamoyl-ethyl)benzyl]-cyclopropyl-amide], the half-maximal inhibitory concentration (IC50) was determined as 80 pM.

Take `CNC(=O)OCCc1ccc(Cl)c(CN(C(=O)[C@H]2CNCC[C@@H]2c2ccc(N3CC[C@@H](Oc4c(Cl)cc(C)cc4Cl)C3)nc2)C2CC2)c1` [Example 110, Methyl-carbamic Acid 2-{4-chloro-3-[(cyclopropyl-{(3′R,4′S)-6-[(R)-3-(2,6-dichloro-4-methyl-phenoxy)-pyrrolidin-1-yl]-1′,2′,3′,4′,5′,6′-hexahydro-[3,4′]bipyridinyl-3′-carbonyl}-amino)-methyl]-phenyl}-ethyl Ester]: the IC50 stood at 390 pM.
